Experimental data from PMC7576480, “Hydroxy-Propil-β-Cyclodextrin Inclusion Complexes of two Biphenylnicotinamide Derivatives: Formulation and Anti-Proliferative Activity Evaluation in Pancreatic Cancer Cell Models” (International Journal of Molecular Sciences, 2020).
Where two headings read alike, the source gives them in different places.

Tests used:
[1] = Phase-solubility study (Higuchi–Connors), apparent 1:1 stability constant with HP-β-CD; format: physicochemical; conditions: complex with HP-β-CD, from the phase solubility diagram, 37 ± 0.5 °C
Protocol: (§1) The phase solubility study was conducted according with Higuchi and Connors. In detail, an excess of PTA34 or PTA73 was added to 1 mL of solutions containing HP-β-CD in the appropriate concentration (0–45% w/v) in 4 mL vials, with screw caps to avoid evaporation. The obtained mixtures were vigorously vortexed for about 5 min, and the suspensions thus obtained were placed under constant stirring in a thermostat bath at 37 ± 0.5 °C for about 48 h, until the saturation of the system was achieved. Then, each suspension was centrifuged at 13,200 rpm (MIKRO 22 R, Hettich Zentrifugen, Germany) in order to remove the uncomplexed drug and the supernatant was analyzed by spectrophotometry for the quantification of the drug, after appropriate dilution. All determinations were conducted at least in triplicate. The obtained data were used to determine the apparent stability 1:1 constant (K1:1) of the HP-β-CD inclusion complexes with the biphenylnicotinamide derivatives, using the Higuchi and Connors equation: K1:1=slope/S0(1−slope) where slope is the slope of the obtained phase solubility diagrams straight line, and S0 represents PTA34 or PTA73 intrinsic solubility determined in the same way.

AsPC-1 cells [2] = assay: MTT cell proliferation assay; format: cell-based; conditions: Homo sapiens, ASPC1, AsPC-1, 72 h, concentration in terms of PTA, ± SD
Protocol: (§2) Human pancreatic ductal adenocarcinoma (PDAC) PANC-1 cells, human pancreas adenocarcinoma ascites metastasis cells AsPC-1, and undifferentiated human pancreatic carcinoma MIAPaCa-2 cells, were purchased from ATCC®. PANC-1 and AsPC-1 cells were cultured in Dulbecco’s modified Eagle’s medium (DMEM), supplemented with fetal bovine serum (FBS), to a final concentration of 10%, L-glutamine 1% (v/v), and penicillin/streptomycin 1% (v/v). MIA PaCa-2 cells were grown in Roswell Park Memorial Institute (RPMI) medium, supplemented as above, and in addition with horse serum, to a final concentration of 2.5%. Cells were maintained in a humid atmosphere of 95% air and 5% CO2 at 37 °C. All materials for cell culturing were purchased from EuroClone (Pero, Milan, Italy).
(§3) The 3-(4,5-dimethylthiazol-2-yl)-2,5- diphenyltetrazoliumbromide (MTT) assay was performed as previously described to investigate the effect of hydroxy-propil-β-cyclodextrin-complexed PTA34 and PTA73 (PTA34/HP-β-CD and PTA73/HP-β-CD, respectively) on cell viability of PANC-1, AsPC-1, and MIA PaCa-2 cell lines. The same uncomplexed compounds and HP-β-CD alone were also tested as reference compounds. Untreated cells were used as a […]. In particular, cells were seeded in 96 well plates at a density of 5000 cells/well, incubated for 24 h in culturing medium, and subsequently treated for 72 h, with compounds at 0.01–10 µM concentrations range, in terms of PTA34 or PTA73, included. HP-β-CD–cyclodextrin alone was tested in the concentrations range corresponding to that present in the complex, namely 2.9–2900 µg/mL. After the incubation period 10 µL of a 0.5% (w/v) MTT/PBS solution were added to each well, and the incubation was prolonged further for 2 h. After this period, medium was removed and replaced with 100 µL of DMSO. The absorbance in each well was measured by a microplate reader (MULTISKAN Sky, ThermoScientific). The results are shown as dose/effect plots of the mean of three different experiments. The IC50 was defined as the drug concentration yielding a fraction of affected (no surviving) cells = 0.5, normalized with untreated cells, and was calculated utilizing CalcuSyn v.1.1.1 software (Biosoft, UK).

Panc-1 cells [3] = assay: MTT cell proliferation assay; format: cell-based; conditions: Homo sapiens, Panc-1, 72 h, concentration in terms of PTA, ± SD
Protocol: as §2, §3

MIA PaCa-2 cells [4] = assay: MTT cell proliferation assay; format: cell-based; conditions: Homo sapiens, MIA PaCa-2, 72 h, concentration in terms of PTA, ± SD
Protocol: as §2, §3

[5] = Solubility in ultra-pure water and in HP-β-CD solutions at 37 °C; format: physicochemical; conditions: for solubility: 37 °C, thermodynamic from solid, ultra-pure water, 37 ± 0.5 °C; for Increase in aqueous solubility: HP-β-CD 45% w/v versus water alone
Protocol: Quantitative analysis of PTA34 and PTA73 was carried out by spectrophotometry using a dual-beam UV-VIS Lambda 20 Bio spectrophotometer (Perkin Elmer, Milan, Italy) and quartz cuvettes, with a capacity of 1 mL, using methanol as solvent. In the case of PTA34 the reading was carried out at a wavelength of 320 nm, and a calibration straight line (r^2 = 0.9979), in the concentration range between 0.15 mg/mL (4.45 × 10^−4 mM) and 0.015 mg/mL (4.45 × 10^−5 mM), was obtained. For PTA73 the reading was carried out at a wavelength of 340 nm, and a calibration straight line (r^2 = 0.9999) in the concentration range between 0.16 mg/mL (5.01 × 10^−4 mM) and 0.016 mg/mL (5.01 × 10^−5 mM), was obtained.
as §1

AsPC-1 cells [6] = assay: Cell cycle analysis by flow cytometry (PI staining); format: cell-based, human; conditions: AsPC-1, 1 µM in terms of PTA, 24 h
Protocol: (§4) For the cell cycle analysis, human pancreatic cancer cells were seeded in 60 mm dishes at a density of 500,000/well and incubated for 24 h at 37 °C, with PTA34, PTA73 both complexed and not at concentration 1 µM in terms of PTA’s, and with cyclodextrin alone at concentration equal to 290 µg/mL. Cells were then harvested, washed twice in ice-cold PBS pH 7.4, fixed in 4 mL of 70% ethanol, and stored at -20 °C until analysis. The cell cycle modulation induced by treatments was studied as previously described by propidium iodide (PI) staining; the pellet was resuspended in PBS without Ca^2+ and Mg^2+, containing 1 mg/mL RNase, 0.01% NP40, and 50 ĉg/mL PI (Sigma), and then flow cytometry analysis was performed on Attune NxT acoustic focusing cytometer (Life Technologies). Data were interpreted using the CytExpert software v.1.2, provided by the manufacturer.

Panc-1 cells [7] = assay: as above; format: cell-based, human; conditions: PANC-1, 1 µM in terms of PTA, 24 h
Protocol: as §4

MIA PaCa-2 cells [8] = assay: as above; format: cell-based, human; conditions: MIA PaCa-2, 1 µM in terms of PTA, 24 h
Protocol: as §4

MIA PaCa-2 cells [9] = system: MIA PaCa-2 cells; design: method as in PMID 30583077; conditions: low doses; cited from earlier work
[10] = HP-β-CD 0% w/v, read-out: Water solubility (intrinsic solubility, S0)
[11] = read-out: Intrinsic solubility (S0)

SMILES	1:1 apparent formation (equilibrium) constant, Ks [1] [M⁻¹]	IC50 (AsPC-1 cells [2]) [nM]	IC50 (Panc-1 cells [3]) [nM]	IC50 (MIA PaCa-2 cells [4]) [nM]	solubility [5, 10] [µg/mL]	solubility [5, 11] [µM]	Increase in aqueous solubility [5]	Cells arrested in G2/M phase (AsPC-1 cells [6]) [%]	Cells arrested in G2/M phase (Panc-1 cells [7]) [%]	Cells arrested in G2/M phase (MIA PaCa-2 cells [8]) [%]	Antitumor activity (MIA PaCa-2 cells [9])
O=C(Nc1ccc(-c2ccc(F)cc2)cc1[N+](=O)[O-])c1cccnc1 [PTA34]	503.9	1900 ± 300	2500 ± 500	310 ± 40	1.95 ± 0.35	5.78	about 150 times	93	57.9	36.7	remarkable antitumor activity
O=C(Nc1ccc(-c2ccccc2)cc1[N+](=O)[O-])c1cccnc1 [PTA73]	369.2	2300 ± 600	1500 ± 200	6 ± 2	7.16 ± 0.34	22.4	~106 times	94.1	64.9	45.2	remarkable antitumor activity
